The values below come from article PMC6496074, “The Evolution of Azole Resistance in Candida albicans Sterol 14α-Demethylase (CYP51) through Incremental Amino Acid Substitutions” (Antimicrobial Agents and Chemotherapy, 2019).

Values joined by “and” are separate entries in the source; they are usually repeats but may differ in a detail not shown here. Equal values may be shown once.

One test addresses T1, CaCYP51 Y132F (Candida albicans, UniProt P10613, Y132F).
T1 construct: made in house; host or cells: E. coli DH5α (pCWori+)
Briefly: CYP51 reconstitution assay. It is filed as biochemical. How it is done: (§1) Azole antifungal agents were added in 2.5 μl dimethyl sulfoxide, followed by 10 min of incubation at 37°C prior to assay initiation with 4 mM β-NADPH-Na4. The samples were then shaken for 15 min at 37°C. Sterol metabolites were recovered by extraction with ethyl acetate, followed by derivatization with 0.1 ml N,O-bis(trimethylsilyl)trifluoroacetamide (BSTFA)–trimethylchlorosilane (TMCS) (99:1) and 0.3 ml anhydrous pyridine (2 h at 80°C), prior to analysis by gas chromatography-mass spectrometry (GC-MS) ([52]). IC50 determinations were performed in duplicate.

The target of the next test is T2, CaCYP51 G448E (Candida albicans, UniProt P10613, G448E).
T2 construct: made in house; host or cells: E. coli DH5α (pCWori+)
T2 sequence (P10613 whole entry, looked up, stated change not applied): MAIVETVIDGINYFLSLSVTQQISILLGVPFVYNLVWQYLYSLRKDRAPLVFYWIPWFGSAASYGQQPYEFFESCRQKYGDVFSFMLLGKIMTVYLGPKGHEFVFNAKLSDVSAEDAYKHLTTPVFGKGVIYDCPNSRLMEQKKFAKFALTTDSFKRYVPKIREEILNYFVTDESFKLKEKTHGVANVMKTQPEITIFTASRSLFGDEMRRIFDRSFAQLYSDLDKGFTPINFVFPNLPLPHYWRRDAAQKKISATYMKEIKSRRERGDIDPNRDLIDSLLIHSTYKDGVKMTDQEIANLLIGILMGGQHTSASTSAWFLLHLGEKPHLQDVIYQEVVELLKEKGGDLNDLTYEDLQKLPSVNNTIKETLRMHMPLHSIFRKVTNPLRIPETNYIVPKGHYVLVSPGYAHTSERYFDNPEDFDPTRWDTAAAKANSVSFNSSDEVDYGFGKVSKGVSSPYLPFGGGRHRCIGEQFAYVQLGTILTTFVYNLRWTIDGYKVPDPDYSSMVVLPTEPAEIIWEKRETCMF
Briefly: CYP51 reconstitution assay. Format: biochemical. The conditions noted are these: for remaining activity at 4 µM: 0.25 h, 4 μM triazole, % of activity without triazole, read-out: Residual CYP51 activity (%) ± SD. How it is done: as §1

The next test addresses T3, CaCYP51 F449Y (Candida albicans, UniProt P10613, F449Y).
T3 construct: made in house; host or cells: E. coli DH5α (pCWori+)
Briefly: CYP51 reconstitution assay. Format: biochemical. The conditions noted are these: for remaining activity at 4 µM: 0.25 h, 4 μM triazole, % of activity without triazole, read-out: Residual CYP51 activity (%) ± SD. How it is done:
as §1

In a further test the target is T4, CaCYP51 V437I (Candida albicans, UniProt P10613, V437I).
T4 construct: made in house; host or cells: E. coli DH5α (pCWori+)
In words: CYP51 reconstitution assay. Format: biochemical. How it is done:
as §1

The target of another test is T5, CaCYP51 Wild type (Candida albicans, UniProt P10613).
T5 construct: made in house; host or cells: E. coli DH5α (pCWori+)
T5 sequence (P10613 whole entry, looked up, natural form): as the sequence (P10613 whole entry, looked up, stated change not applied) above
Briefly: CYP51 reconstitution assay. Particulars: Wild type; for remaining activity at 4 µM: 0.25 h, 4 μM triazole, % of activity without triazole, read-out: Residual CYP51 activity (%) ± SD. It is filed as biochemical. The method, then: as §1

The target of the next test is T6, CaCYP51 S405F (Candida albicans, UniProt P10613, S405F).
T6 construct: made in house; host or cells: E. coli DH5α (pCWori+)
T6 sequence (P10613 whole entry, looked up, stated change not applied): as above
In words: CYP51 reconstitution assay. The conditions noted are these: for remaining activity at 4 µM: 0.25 h, 4 μM triazole, % of activity without triazole, read-out: Residual CYP51 activity (%) ± SD. It is filed as biochemical. The method, then:
as §1

The next test addresses T7, CaCYP51 I471T (Candida albicans, UniProt P10613, I471T).
T7 construct: made in house; host or cells: E. coli DH5α (pCWori+)
In words: CYP51 reconstitution assay. It is filed as biochemical. Particulars: for remaining activity at 4 µM: 0.25 h, 4 μM triazole, % of activity without triazole, read-out: Residual CYP51 activity (%) ± SD. How it is done: as §1

The next test addresses T8, CaCYP51 Y257H (Candida albicans, UniProt P10613, Y257H).
T8 construct: made in house; host or cells: E. coli DH5α (pCWori+)
In words: CYP51 reconstitution assay. It is filed as biochemical. The conditions noted are these: for remaining activity at 4 µM: 0.25 h, 4 μM triazole, % of activity without triazole, read-out: Residual CYP51 activity (%) ± SD. The method, then: as §1

Another test concerns the target T9, CaCYP51 D278N (Candida albicans, UniProt P10613, D278N).
T9 construct: made in house; host or cells: E. coli DH5α (pCWori+)
In words: CYP51 reconstitution assay. It is filed as biochemical. The conditions noted are these: for remaining activity at 4 µM: 0.25 h, 4 μM triazole, % of activity without triazole, read-out: Residual CYP51 activity (%) ± SD. How it is done:
as §1

The next test concerns the target T10, CaCYP51 D278N+G464S (Candida albicans, UniProt P10613, D278N/G464S).
T10 construct: made in house; host or cells: E. coli DH5α (pCWori+)
Briefly: CYP51 reconstitution assay. Format: biochemical. Particulars: for remaining activity at 4 µM: 0.25 h, 4 μM triazole, % of activity without triazole, read-out: Residual CYP51 activity (%) ± SD. How it is done:
as §1

The next test concerns the target T11, CaCYP51 G464S (Candida albicans, UniProt P10613, G464S).
T11 construct: made in house; host or cells: E. coli DH5α (pCWori+)
In words: CYP51 reconstitution assay. Format: biochemical. The conditions noted are these: for remaining activity at 4 µM: 0.25 h, 4 μM triazole, % of activity without triazole, read-out: Residual CYP51 activity (%) ± SD. How it is done: as §1

The target of another test is T12, CaCYP51 R467K (Candida albicans, UniProt P10613, R467K).
T12 construct: made in house; host or cells: E. coli DH5α (pCWori+)
Briefly: CYP51 reconstitution assay. Format: biochemical. The conditions noted are these: for remaining activity at 4 µM: 0.25 h, 4 μM triazole, % of activity without triazole, read-out: Residual CYP51 activity (%) ± SD. The method, then:
as §1

The next test addresses T13, CaCYP51 G450E (Candida albicans, UniProt P10613, G450E).
T13 construct: made in house; host or cells: E. coli DH5α (pCWori+)
In words: CYP51 reconstitution assay. It is filed as biochemical. The conditions noted are these: for remaining activity at 4 µM: 0.25 h, 4 μM triazole, % of activity without triazole, read-out: Residual CYP51 activity (%) ± SD. The method, then: as §1

For the next test, the target named is T14, CaCYP51 Y447H (Candida albicans, UniProt P10613, Y447H).
T14 construct: made in house; host or cells: E. coli DH5α (pCWori+)
Briefly: CYP51 reconstitution assay. It is filed as biochemical. The conditions noted are these: for remaining activity at 4 µM: 0.25 h, 4 μM triazole, % of activity without triazole, read-out: Residual CYP51 activity (%) ± SD. How it is done: as §1

The next test has as its target T15, CaCYP51 F126V (Candida albicans, UniProt P10613, F126V).
T15 construct: made in house; host or cells: E. coli DH5α (pCWori+)
Briefly: CYP51 reconstitution assay. Particulars: for remaining activity at 4 µM: 0.25 h, 4 μM triazole, % of activity without triazole, read-out: Residual CYP51 activity (%) ± SD. It is filed as biochemical. How it is done: as §1

The subject of the next test is CaCYP51 Y132F+F145L. Briefly: CYP51 reconstitution assay. It is filed as biochemical, Candida albicans. Particulars: Y132F+F145L. How it is done:
as §1

Test [1] has as its system CaCYP51 proteins with amino acid substitutions. In words: CYP51 reconstitution assay, span over several CaCYP51 proteins. It is filed as biochemical, Candida albicans. The conditions noted are these: 4 μM voriconazole; K143R, S279F, G450E, Y132F+K143R, Y132H+K143R, Y132F+F145L, D278N+G464S. How it is done:
as §1

[2] abbreviates: 0.25 h, 4 μM triazole, % of activity without triazole, read-out: Residual CYP51 activity (%) ± SD.

T13 sequence (P10613 whole entry, looked up, stated change not applied): as above
T10 sequence (P10613 whole entry, looked up, stated change not applied): as above
T9 sequence (P10613 whole entry, looked up, stated change not applied): as above
T11 sequence (P10613 whole entry, looked up, stated change not applied): as above
T8 sequence (P10613 whole entry, looked up, stated change not applied): as above
T7 sequence (P10613 whole entry, looked up, stated change not applied): as above

As usually defined, the IC50 is the concentration that gives 50% inhibition. Take `CC[C@@H]([C@H](C)O)n1ncn(-c2ccc(N3CCN(c4ccc(OC[C@@H]5CO[C@@](Cn6cncn6)(c6ccc(F)cc6F)C5)cc4)CC3)cc2)c1=O` [Posaconazole, posaconazole]: the IC50 against CaCYP51 Y132F (mean ± SD, duplicate) was 343 ± 20 nM; on CaCYP51 G448E (mean ± SD, duplicate), 542 ± 51 nM; on CaCYP51 F449Y (mean ± SD, duplicate) it was 366 ± 37 nM; against CaCYP51 V437I (mean ± SD, duplicate), 319 ± 9 nM; at CaCYP51 Wild type (mean ± SD, duplicate, read-out: IC50) it was 200 nM and 195 nM; against CaCYP51 S405F (mean ± SD, duplicate), 637 ± 54 nM. Also, the IC50 against CaCYP51 I471T (mean ± SD, duplicate) was found to be 522 ± 64 nM; on CaCYP51 Y257H (mean ± SD, duplicate), 611 ± 17 nM; against CaCYP51 D278N (mean ± SD, duplicate), 908 ± 20 nM; at CaCYP51 D278N+G464S (mean ± SD, duplicate), 930 ± 9 nM; against CaCYP51 G464S (mean ± SD, duplicate) it was 253 ± 24 nM; against CaCYP51 R467K (mean ± SD, duplicate), 380 ± 11 nM. Further, the IC50 was found to be 908 ± 132 nM against CaCYP51 G450E (mean ± SD, duplicate); 439 ± 135 nM at CaCYP51 Y447H (mean ± SD, duplicate); 304 ± 70 nM at CaCYP51 F126V (mean ± SD, duplicate). For the same molecule, the remaining activity at 4 µM came out at 7.89 ± 0.29% at CaCYP51 G448E; 5.42 ± 0.04% on CaCYP51 F449Y; 0.59 ± 0.2% on CaCYP51 V437I (setting [2]); 0.66 ± 0.02% on CaCYP51 Wild type; 9.38 ± 0.53% at CaCYP51 S405F; 7.71 ± 0.58% on CaCYP51 I471T. Also, the remaining activity at 4 µM was found to be 6.42 ± 0.59% on CaCYP51 Y257H; 14.8 ± 0.92% at CaCYP51 D278N; 15 ± 1.16% at CaCYP51 D278N+G464S; 0.54 ± 0.09% at CaCYP51 G464S; 3.62 ± 0.09% on CaCYP51 R467K; 15.6 ± 0.21% on CaCYP51 G450E. Also, the remaining activity at 4 µM came to 8.19 ± 3.58% at CaCYP51 Y447H and 0.1 ± 0.01% at CaCYP51 F126V. Moreover, the “fold increase in IC50 over wild-type enzyme” value worked out at 4.8 fold at CaCYP51 D278N+G464S and 2.2 fold with CaCYP51 Y132F+F145L.

As for `C[C@@H](c1ncncc1F)[C@](O)(Cn1cncn1)c1ccc(F)cc1F` [Voriconazole, voriconazole], the “Residual CYP51 activity, span over proteins” value in [1] is listed as “over 3%”. Moreover, the remaining activity at 4 µM on CaCYP51 Y132F (setting [2]) came to 1.09 ± 0.05%; at CaCYP51 G448E, 1.89 ± 0.61%; on CaCYP51 F449Y it was 0.56 ± 0.12%; at CaCYP51 Wild type, 0.11 ± 0.01%; on CaCYP51 S405F, 1.94 ± 0.12%; on CaCYP51 I471T, 0.92 ± 0.05%. Moreover, the remaining activity at 4 µM worked out at 0.63 ± 0.27% at CaCYP51 Y257H; 1.34 ± 0.05% at CaCYP51 D278N; 4.79 ± 0.11% at CaCYP51 D278N+G464S; 0.1 ± 0.01% at CaCYP51 G464S; 0.52 ± 0.18% on CaCYP51 R467K; 3.5 ± 0.17% at CaCYP51 G450E. The remaining activity at 4 µM on CaCYP51 Y447H was found to be 2.07 ± 1.04%; at CaCYP51 F126V, 0.19 ± 0.06%.
